# PubChem BioAssay AID1963865 (Molecular Pharmacology Branch, DTP, NCI, 2024)
# pIC50: −log10 of the molar value. Values joined by “and” are separate entries in the source; they are usually repeats but may differ in a detail not shown here. Equal entries are not always repeated.
# Tested on: KRAS PDC multicell spheroid viability
# Assay: Anticancer human tumor 825966-067-R-J1-PDC patient-derived colon carcinoma cell line growth inhibition [KRAS2]
# Conditions: for viability, T/C: stronger effect = lower value
# Text: Multicellular complex tumor spheroid response to RAS pathway inhibitors in combination with a targeted agents in patient-derived cell lines with oncogenic KRAS variants from multiple cancer types
# A high-throughput screen of multi-cell type tumor spheroids was designed to identify active combinations of targeted small molecules and KRAS pathway inhibitors. Complex spheroids include a stromal component modeled by human endothelial cells (HUVEC) and fibroblasts modeled by human mesenchymal stem cells (MSCs). The concentration ranges selected for each drug and investigational agent were based upon clinically achievable concentrations if the clinical Cmax of the agent was known.
# Compounds. The drugs and investigational agents: BI-3406 (NSC825286), BAY-293 (NSC824723), batoprotafib (TNO155; NSC825523), sotorasib (AMG 510; NSC818433), MRTX1257 (NSC819558), elimusertib (BAY 1895344; NSC800525), molibresib (GSK525762; NSC774829), temuterkib (LY3214996; NSC803410), venetoclax (NSC766270), alisertib (NSC759677), olaparib (NSC753686), talazoparib (NSC767125), erdafitinib (NSC781556), ipatasertib (NSC767898), cabozantinib (NSC761068), nintedanib (NSC756659), abemaciclib (NSC768073), docetaxel (NSC628503), trametinib (NSC758246), and sapanisertib (NSC764658) were obtained from the National Cancer Institute (NCI) Developmental Therapeutics Program Chemical Repository. The FDA-approved anticancer drug set is available from the Developmental Therapeutics Program. […] The stock solutions were prepared in dimethyl sulfoxide (DMSO, Sigma-Aldrich, St. Louis, MO, cat. D2650) at 800-fold the tested concentration and stored at -70 degrees C prior to their use. All drugs and investigational agents were tested over a range starting from a high concentration at or near the clinical Cmax and decreasing in half-log increments. If the clinical Cmax for an agent had not been determined, the highest concentration tested was 10 microM.
# Cell Culture. All cells were maintained in an incubator at 37 degrees C and 5% CO2 with 95% humidity. The PDC lines were cultured according to standard operating procedures established by the NCI PDMR (https://pdmr.cancer.gov/sops/default.htm). Briefly, all PDCs were thawed and cultured in Matrigel-coated flasks prepared with a working solution of 1X Ham's F-12 nutrient mix, without supplementation (Invitrogen, Waltham, MA, cat. 11765054), 100 U/mL penicillin-streptomycin (Invitrogen, cat. 15140122), and 2.5% Matrigel (Corning Inc., Corning, NY, cat. 354248) for the first three passages. All PDCs were cultured in complete DMEM/F-12 media containing advanced DMEM/F-12 (Invitrogen, cat. 12634028), 4.9% defined fetal bovine serum, heat inactivated (HyClone Laboratories Inc., Logan, UT, cat. SH30070.03HI), 389 ng/mL hydrocortisone (Sigma-Aldrich, cat. H4001), 9.7 ng/mL human EGF recombinant protein (Invitrogen, cat. PHG0313), 23.4 microg/mL adenine (Sigma-Aldrich, cat. A2786), 97.3 U/mL penicillin-streptomycin (Invitrogen, cat. 15140122), 1.9 mM L-glutamine (Invitrogen, cat. 25030081), and 9.7 microM Y-27632 dihydrochloride (Tocris Bioscience, Bristol, United Kingdom, cat. 1254). The PDCs were cultured in complete DMEM/F12 media without 9.7 microM Y-27632 dihydrochloride for at least two passages prior to the screen. The established cell line HOP-62 was cultured in RPMI 1640 medium, HEPES (Invitrogen, cat. 22400105) with 10% defined fetal bovine serum (HyClone Laboratories Inc., cat. SH30070.03) and 2 mM L-glutamine (Invitrogen, cat. 25030081). The pooled donor HUVEC were cultured in endothelial cell growth medium 2 (PromoCell, Heidelberg, Germany, cat. C-22011) and the hMSC were cultured in mesenchymal stem cell growth medium 2 (PromoCell, cat. C-28009). For all experiments, HUVEC and hMSC were used at passages </=5, while the malignant cell lines were used at passages </=15. […]
# [1] = compound alone, run of 08/19/2021
# [2] = compound alone, run of 08/26/2021
# [3] = compound alone, run of 09/02/2021
# 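Note: spheroids exposed to compounds for 7 days.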
# 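Throughout, for viability, T/C: 100% = DMSO vehicle control viability.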
Compound,"viability, T/C (compound 0.1 µM)",pIC50 (curve of compound),"viability, T/C (compound 0.316 µM)","viability, T/C (compound 3.16 µM)","viability, T/C (compound 10 µM)",IC50 (curve of compound),further results
C=CC(=O)N1CCN(c2nc(=O)n(-c3c(C)ccnc3C(C)C)c3nc(-c4c(O)cccc4F)c(F)cc23)C(C)C1 (stereo not drawn),,,,,,,pIC50 [1]: < 5.00; pIC50 [2]: < 5.00; pIC50 [3]: < 5.00
C=CC(=O)N1CCN(c2nc(OCC3CCCN3C)nc3c2CCN(c2cccc4cccc(C)c24)C3)CC1CC#N (stereo not drawn),87.5% [middle of 17 runs],,,,,,pIC50 [1]: < 5.50; pIC50 [2]: < 5.50; pIC50 [3]: < 5.50 and 5.62
CC(=O)Nc1cccc(-n2c(=O)n(C3CC3)c(=O)c3c(Nc4ccc(I)cc4F)n(C)c(=O)c(C)c32)c1,,< 7.50 and 7.55,,,,,"viability, T/C (compound 0.0001 µM): 96.8% [middle of 5 runs]; viability, T/C (compound 0.000316 µM): 94.2% [middle of 5 runs]; viability, T/C (compound 0.01 µM): 104% [middle of 5 runs]"
CC(=O)OC12COC1CC(O)C1(C)C(=O)C(O)C3=C(C)C(OC(=O)C(O)C(NC(=O)OC(C)(C)C)c4ccccc4)CC(O)(C(OC(=O)c4ccccc4)C21)C3(C)C (stereo not drawn),18.5% [middle of 5 runs],> 8.00,23.7% [middle of 5 runs],36.5% [middle of 5 runs],,,"viability, T/C (compound 0.01 µM): 20.3% [middle of 5 runs]; viability, T/C (compound 0.0316 µM): 23.2% [middle of 5 runs]; viability, T/C (compound 1 µM): 28.8% [middle of 5 runs]"
CC(C)NCC(C(=O)N1CCN(c2ncnc3c2C(C)CC3O)CC1)c1ccc(Cl)cc1 (stereo not drawn),,,113% [middle of 5 runs],32.6% [middle of 5 runs],10% [middle of 5 runs],2.24 µM [middle of 5 runs],
CC(C)n1nc(-c2ccc3oc(N)nc3c2)c2c(N)ncnc21,,< 7.00,,,,,"viability, T/C (compound 0.00316 µM): 127% [middle of 5 runs]"
CC1(C)CCC(CN2CCN(c3ccc(C(=O)NS(=O)(=O)c4ccc(NCC5CCOCC5)c([N+](=O)[O-])c4)c(Oc4cnc5[nH]ccc5c4)c3)CC2)=C(c2ccc(Cl)cc2)C1,90.1% [middle of 5 runs],,102% [middle of 5 runs],29.4% [middle of 5 runs],7.19% [middle of 5 runs],2.03 µM [middle of 5 runs],
CC1COCCN1c1cc(-c2ccnn2C)c2ccnc(-c3ccn[nH]3)c2n1 (stereo not drawn),,,,60% [middle of 5 runs],,,"viability, T/C (compound 0.01 µM): 110% [middle of 5 runs]"
CC1OCC2(CCN(c3cnc(Sc4ccnc(N)c4Cl)c(N)n3)CC2)C1N (stereo not drawn),92.7% [middle of 19 runs],5.03 and 5.06 and < 5.00,,,,,"viability, T/C (compound 0.0316 µM): 82% and 80.9% and 85.5%; pIC50 [1]: < 5.00 and 5.03; IC50 [2]: 7.63 µM [middle of 5 runs]; pIC50 [3]: < 5.00 and 5.09"
CCN1CCN(Cc2ccc(Nc3ncc(F)c(-c4cc(F)c5nc(C)n(C(C)C)c5c4)n3)nc2)CC1,95.5% [middle of 5 runs],< 6.00,117% [middle of 5 runs],,,,"viability, T/C (compound 0.00316 µM): 98% [middle of 4 runs]; viability, T/C (compound 0.01 µM): 90.6% [middle of 5 runs]"
CCNC(=O)CC1N=C(c2ccc(Cl)cc2)c2cc(OC)ccc2-n2c(C)nnc21 (stereo not drawn),,< 5.00,,,83.8% [middle of 5 runs],,
CN(C)C/C=C/C(=O)Nc1cc2c(Nc3ccc(F)c(Cl)c3)ncnc2cc1O[C@H]1CCOC1,105% [middle of 5 runs],< 7.00,,,,,
CNCc1ccccc1-c1csc(C(C)Nc2nc(C)nc3cc(OC)c(OC)cc23)c1 (stereo not drawn),,,,,0.22% [middle of 14 runs],,IC50 [1]: 2.3 µM [middle of 6 runs]; IC50 [2]: 3.18 µM [middle of 5 runs]
COC(=O)c1ccc2c(C(=Nc3ccc(N(C)C(=O)CN4CCN(C)CC4)cc3)c3ccccc3)c(O)[nH]c2c1,90.7% [middle of 5 runs],,92.2% [middle of 5 runs],0.53% [middle of 5 runs],0.29% [middle of 4 runs],1.24 µM [middle of 5 runs],"viability, T/C (compound 0.0316 µM): 93.7% [middle of 5 runs]"
COc1cc(Nc2ncc3c(n2)-c2ccc(Cl)cc2C(c2c(F)cccc2OC)=NC3)ccc1C(=O)O,103% [middle of 5 runs],< 5.00,,119% [middle of 5 runs],132% [middle of 5 runs],,"viability, T/C (compound 1 µM): 114% [middle of 5 runs]"
COc1cc(OC)cc(N(CCNC(C)C)c2ccc3ncc(-c4cnn(C)c4)nc3c2)c1,89.2% [middle of 5 runs],,91.1% [middle of 5 runs],,,,"viability, T/C (compound 0.0316 µM): 92.5% [middle of 5 runs]; viability, T/C (compound 1 µM): 95.6% [middle of 5 runs]"
COc1cc2nc(C)nc(NC(C)c3cc(N)cc(C(F)(F)F)c3)c2cc1OC1CCOC1 (stereo not drawn),,,,,,,IC50 [2]: 5.81 µM [middle of 5 runs]; pIC50 [3]: < 5.00 and 5.12
COc1cc2nccc(Oc3ccc(NC(=O)C4(C(=O)Nc5ccc(F)cc5)CC4)cc3)c2cc1OC,,,86.7% [middle of 5 runs],8.3% [middle of 5 runs],7.11% [middle of 5 runs],1.75 µM [middle of 5 runs],"viability, T/C (compound 0.0316 µM): 102% [middle of 5 runs]; viability, T/C (compound 1 µM): 83.7% [middle of 5 runs]"
Cn1nccc1Nc1nccc(-c2cc3c(s2)C(C)(C)N(CCN2CCOCC2)C3=O)n1,94.8% [middle of 5 runs],< 5.00,109% [middle of 5 runs],96% [middle of 5 runs],81.8% [middle of 5 runs],,"viability, T/C (compound 0.0316 µM): 90.9% [middle of 5 runs]"
Cn1ncnc1[C@H]1c2n[nH]c(=O)c3cc(F)cc(c23)N[C@@H]1c1ccc(F)cc1,,< 7.00,,,,,"viability, T/C (compound 0.01 µM): 82.8% [middle of 5 runs]"
O=C(c1cc(Cc2n[nH]c(=O)c3ccccc23)ccc1F)N1CCN(C(=O)C2CC2)CC1,88.5% [middle of 5 runs],< 5.00,,79.6% [middle of 5 runs],,,
